# Data published in patent US11779597B2, “Method of treating Parkinson's and other neurodegenerative diseases” (Vector Vitale IP LLC, priority 2019, dated 2023).
# Legend:
# microglia = experiment: Functional and phenotypic properties of microglia in LPS rat models; format: in vivo; conditions: LPS animal models of PD
# Description: On the 1st day of the experiment, rats were either operated to model hemi-parkinsonism or sham operated. From the 9th to the 18th day of the experiment, the animals were injected either deuterium-depleted water or the test substance, according to their allocation into groups, for 10 days. On the 8th day of the experiment (before initiation of treatment—apomorphine test I) and on the 21st day of the experiment (after the end of administering the test substance —apomorphine test II) the animals underwent an apomorphine test to analyze the development of hemi-parkinsonism which correlates with the number of destroyed dopaminergic neurons. In addition, a follow-up analysis of fecal water content was carried out, i.e., before the start of treatment on the 8th day after the operation, as well as on the 21st (after the end of treatment) and the 28th day (before autopsy). On the 24th day of the experiment, behavioral tests were carried out in all groups. All animals were weighed before autopsy. During autopsy, ⅔ of animals from each group were sacrificed by cervical dislocation and brain and blood samples were collected for further biochemical and immunological tests. ⅓ of the animals were used for further immunohistochemical studies of the brain; for this purpose, under anesthesia, a procedure of fast, controlled and uniform fixation of the whole body of the animal was performed using 4% paraformaldehyde perfused through the heart of the rat to obtain the best preservation of the brain architecture for immunohistochemistry. Gage G J, et al., J Vis Exp. 2012 Jul. 30; (65).
# (§1) To assess the anti-inflammatory and immunomodulating effects of the test substance, microglia and peritoneal macrophages were isolated. Phenotypic and functional features of peripheral blood phagocytes were evaluated without their fractioning (using whole blood). […]
# (§2) Phagocytic activity of microglia, peritoneal macrophages and peripheral blood phagocytes was analyzed on a flow cytometer using FITC-labeled S. aureus Wood 46 cells as an object of phagocytosis. […]
# (§3) Oxidative metabolism of phagocytes of various localization was analyzed by flow cytometry using the cell-permeant 2′7′-dichlorodihydrofluorescein-diacetate (DHP) (carboxy-H2DCFDA, Invitrogen, USA) which is converted by intracellular esterases to the nonfluorescent membrane-impermeable carboxy-H2DCF form.
# (§4) The phenotypic profile of phagocytes of various localization was characterized by the expression of markers of functional maturity and metabolic polarization (CD206, CD80 and CD86), which was determined by flow cytometry and the use of monoclonal antibodies of appropriate specificity marked with fluorescent dyes (Abcam, Becton Dickinson).
# peritoneal macrophages = experiment: Functional and phenotypic properties of peritoneal phagocytes in LPS rat models; format: in vivo; conditions: animal models of PD
# Description: On the 1st day of the experiment, rats were either operated to model hemi-parkinsonism or sham operated. From the 9th to the 18th day of the experiment, the animals were injected either deuterium-depleted water or the test substance, according to their allocation into groups, for 10 days. On the 8th day of the experiment (before initiation of treatment—apomorphine test I) and on the 21st day of the experiment (after the end of administering the test substance —apomorphine test II) the animals underwent an apomorphine test to analyze the development of hemi-parkinsonism which correlates with the number of destroyed dopaminergic neurons. In addition, a follow-up analysis of fecal water content was carried out, i.e., before the start of treatment on the 8th day after the operation, as well as on the 21st (after the end of treatment) and the 28th day (before autopsy). On the 24th day of the experiment, behavioral tests were carried out in all groups. All animals were weighed before autopsy. […]
# as §1, §2, §3, §4
substance,measurement,setting,value
^64Zn-enriched zinc aspartate [^64Zne-asp],expression of CD86 by microglia,microglia,significant increase
same,expression of CD206 by microglia,microglia,increased expression
same,oxidative metabolism of microglia,microglia,slightly but statistically significantly increased
same,phagocytic activity of microglia,microglia,sharp increase
same,expression of all phenotypic markers in peritoneal macrophages,peritoneal macrophages,significant increase
same,oxidative metabolism of the peritoneal exudate cells,peritoneal macrophages,decrease
same,phagocytic activity of the peritoneal exudate cells,peritoneal macrophages,activation
